According to US9096615B2, “Bridged bicyclic amino thiazine dioxide compounds as inhibitors of beta-secretase and methods of use thereof” (AMGEN INC., priority 2013, dated 2015):

Assays:
[1] = molecular target: BACE1 (Homo sapiens, UniProt P56817); test: In vitro enzymatic BACE FRET assay; type: biochemical; details: average IC50; read-out: BACE1 Enzyme assay IC50
Procedure, shortened: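 Fluorescence (excitation 488 nm, […]) from cleavage of quenched peptide substrate (50 nM), reaction run 1 h after 1 h enzyme–inhibitor pre-incubation, then neutralised with Tris. Conditions: 0.2 nM enzyme, pH 4.2 acetate 0.05 M, 10% DMSO final, 100 uM genapol.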

[2] = molecular target: T1, Cathepsin D (Cat D) (Homo sapiens, UniProt P07339); test: In vitro enzymatic Cathepsin D (Cat D) FRET assay; type: biochemical; details: average IC50; first procedure; read-out: CatD IC50
T1 construct: made in house; host or cells: CHO cells
Procedure, shortened: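 Fluorescence (500 nm excitation, 580 nm emission) was measured after Tris quench of a 1 h cleavage of 20 nM quenched peptide substrate. Before that, 9 nM CHO-expressed human Cat D sat with compound for 1 h at pH 3.5 (0.05 M citrate, 5 mM CHAPS, 10% DMSO final).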

[3] = system: Aβ40 in conditioned medium of cells stably expressing Amyloid Precursor Protein (APP); test: In vitro BACE cell-based assay (HEK cell assay, Aβ40 sandwich ELISA); details: Homo sapiens, HEK293; average IC50; read-out: BACE1 cell assay IC50
Procedure, shortened: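 IC50 was derived from percent-of-control Aβ40 against concentration, with Aβ40 quantified by time-resolved fluorescence ELISA (pAb40/6E10-biotin, 4 °C incubations). Supernatants were sampled after 24 h of compound exposure (10 points, starting 100 or 10 μM, 0.1% DMSO) of cells stably expressing APP.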

Chain of BACE1 (P56817 46-501, species assumed): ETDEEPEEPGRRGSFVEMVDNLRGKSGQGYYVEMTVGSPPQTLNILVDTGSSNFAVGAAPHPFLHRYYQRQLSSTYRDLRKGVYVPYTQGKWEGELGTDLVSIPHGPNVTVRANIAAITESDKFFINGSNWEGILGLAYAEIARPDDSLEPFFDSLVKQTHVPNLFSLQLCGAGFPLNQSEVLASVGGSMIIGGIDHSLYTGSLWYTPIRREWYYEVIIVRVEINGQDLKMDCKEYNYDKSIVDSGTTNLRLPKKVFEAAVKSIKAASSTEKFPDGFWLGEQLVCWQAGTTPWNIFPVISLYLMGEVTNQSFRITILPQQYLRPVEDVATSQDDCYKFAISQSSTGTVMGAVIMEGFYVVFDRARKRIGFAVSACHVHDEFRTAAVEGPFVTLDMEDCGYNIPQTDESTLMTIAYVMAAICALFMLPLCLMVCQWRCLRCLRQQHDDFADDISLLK
T1 sequence (P07339 65-412, species assumed): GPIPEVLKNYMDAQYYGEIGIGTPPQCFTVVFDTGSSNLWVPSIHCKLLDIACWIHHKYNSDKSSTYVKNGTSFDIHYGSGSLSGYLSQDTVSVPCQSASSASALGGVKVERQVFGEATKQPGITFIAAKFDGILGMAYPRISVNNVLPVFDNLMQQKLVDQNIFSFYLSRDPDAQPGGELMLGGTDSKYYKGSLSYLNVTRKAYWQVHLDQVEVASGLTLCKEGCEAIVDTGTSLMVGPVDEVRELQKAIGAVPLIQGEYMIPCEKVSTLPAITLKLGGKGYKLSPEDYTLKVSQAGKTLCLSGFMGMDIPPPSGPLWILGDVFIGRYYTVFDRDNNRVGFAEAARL

COc1cnc2c(Nc3ccc(F)c([C@@]4(C)N=C(N)[C@]5(C)CC[C@H]4S5(=O)=O)c3)nccc2n1 [Example 81, N-(3-((1R,2R,5S)-4-amino-2,5-dimethyl-8,8-dioxido-8-thia-3-azabicyclo[3.2.1]oct-3-en-2-yl)-4-fluorophenyl)-2-methoxypyrido[3,4-b]pyrazin-5-amine]
IC50 [1]: 0.225 µM
IC50 [2]: > 348 µM
IC50 [3]: 0.062 µM

C[C@]1(c2cc(Nc3nccc4nc(C(F)(F)F)cnc34)ccc2F)N=C(N)[C@@]2(C)CC[C@@H]1S2(=O)=O [Example 86, N-(3-((1S,2R,5R)-4-amino-2,5-dimethyl-8,8-dioxido-8-thia-3-azabicyclo[3.2.1]oct-3-en-2-yl)-4-fluorophenyl)-2-(trifluoromethyl)pyrido[3,4-b]pyrazin-5-amine]
IC50 [1]: 0.023 µM
IC50 [2]: > 44.4 µM
IC50 [3]: 0.067 µM

C[C@]12CC[C@H]([C@@](C)(c3cc(Nc4nccc5nc(C(F)(F)F)cnc45)ccc3F)N=C1N)S2(=O)=O [Example 87, N-(3-((1R,2R,5S)-4-amino-2,5-dimethyl-8,8-dioxido-8-thia-3-azabicyclo[3.2.1]oct-3-en-2-yl)-4-fluorophenyl)-2-(trifluoromethyl)pyrido[3,4-b]pyrazin-5-amine]
IC50 [1]: 0.084 µM
IC50 [2]: > 44.4 µM
IC50 [3]: 0.313 µM

COCc1ccc(C(=O)Nc2ccc(F)c([C@@]3(C)N=C(N)[C@@]4(C)CC[C@@H]3S4(=O)=O)c2)nc1 [Example 90, N-(3-((1S,2R,5R)-4-amino-2,5-dimethyl-8,8-dioxido-8-thia-3-azabicyclo[3.2.1]oct-3-en-2-yl)-4-fluorophenyl)-5-(methoxymethyl)-2-pyridinecarboxamide]
IC50 [1]: 0.057 µM
IC50 [2]: 3420 µM
IC50 [3]: 0.02 µM

COCc1ccc(C(=O)Nc2ccc(F)c([C@@]3(C)N=C(N)[C@]4(C)CC[C@H]3S4(=O)=O)c2)nc1 [Example 91, N-(3-((1R,2R,5S)-4-amino-2,5-dimethyl-8,8-dioxido-8-thia-3-azabicyclo[3.2.1]oct-3-en-2-yl)-4-fluorophenyl)-5-(methoxymethyl)-2-pyridinecarboxamide]
IC50 [1]: 0.255 µM
IC50 [2]: 3260 µM
IC50 [3]: 0.046 µM

Cc1cc(C(F)(F)F)cnc1C(=O)Nc1ccc(F)c([C@@]2(C)N=C(N)[C@]3(CF)CC[C@H]2S3(=O)=O)c1 [Example 93, N-(3-((1R,2R,5S)-4-amino-5-(fluoromethyl)-2-methyl-8,8-dioxido-8-thia-3-azabicyclo[3.2.1]oct-3-en-2-yl)-4-fluorophenyl)-3-methyl-5-(trifluoromethyl)-2-pyridinecarboxamide]
IC50 [1]: 0.04 µM
IC50 [2]: 1590 µM
IC50 [3]: 0.035 µM

CC#CCOc1cnc(C(=O)Nc2ccc(F)c([C@@]3(C)N=C(N)[C@@]4(CF)CC[C@@H]3S4(=O)=O)c2)cn1 [Example 94, N-(3-((1S,2R,5R)-4-amino-5-(fluoromethyl)-2-methyl-8,8-dioxido-8-thia-3-azabicyclo[3.2.1]oct-3-en-2-yl)-4-fluorophenyl)-5-(2-butyn-1-yloxy)-2-pyrazinecarboxamide]
IC50 [1]: 0.0005 µM
IC50 [2]: 257 µM
IC50 [3]: 0.0002 µM

CC#CCOc1cnc(C(=O)Nc2ccc(F)c([C@@]3(C)N=C(N)[C@]4(CF)CC[C@H]3S4(=O)=O)c2)cn1 [Example 95, N-(3-((1R,2R,5S)-4-amino-5-(fluoromethyl)-2-methyl-8,8-dioxido-8-thia-3-azabicyclo[3.2.1]oct-3-en-2-yl)-4-fluorophenyl)-5-(2-butyn-1-yloxy)-2-pyrazinecarboxamide]
IC50 [1]: 0.007 µM
IC50 [2]: 603 µM
IC50 [3]: 0.003 µM

COc1cnc2c(Nc3ccc(F)c([C@@]4(C)N=C(N)[C@@]5(CF)CC[C@@H]4S5(=O)=O)c3)ncc(F)c2c1 [Example 99, N-(3-((1S,2R,5R)-4-amino-5-(fluoromethyl)-2-methyl-8,8-dioxido-8-thia-3-azabicyclo[3.2.1]oct-3-en-2-yl)-4-fluorophenyl)-5-fluoro-3-methoxy-1,7-naphthyridin-8-amine]
IC50 [1]: 0.006 µM
IC50 [2]: 317 µM
IC50 [3]: 0.028 µM

CCc1ccc(C(=O)Nc2ccc(F)c([C@@]3(C)N=C(N)[C@@]4(CF)CC[C@@H]3S4(=O)=O)c2)nc1 [Example 101, N-(3-((1S,2R,5R)-4-amino-5-(fluoromethyl)-2-methyl-8,8-dioxido-8-thia-3-azabicyclo[3.2.1]oct-3-en-2-yl)-4-fluorophenyl)-5-ethyl-2-pyridinecarboxamide]
IC50 [1]: 0.026 µM
IC50 [2]: 1850 µM
IC50 [3]: 0.012 µM

C[C@]1(c2cc(NC(=O)c3ncc(C(F)(F)F)cc3Cl)ccc2F)N=C(N)[C@@]2(CF)CC[C@@H]1S2(=O)=O [Example 108, N-(3-((1S,2R,5R)-4-amino-5-(fluoromethyl)-2-methyl-8,8-dioxido-8-thia-3-azabicyclo[3.2.1]oct-3-en-2-yl)-4-fluorophenyl)-3-chloro-5-(trifluoromethyl)-2-pyridinecarboxamide]
IC50 [1]: 0.008 µM
IC50 [2]: > 400 µM
IC50 [3]: 0.007 µM

C[C@]1(c2cc(NC(=O)c3ccc(C#N)cn3)ccc2F)N=C(N)[C@@]2(CF)CC[C@@H]1S2(=O)=O [Example 111, N-(3-((1S,2R,5R)-4-amino-5-(fluoromethyl)-2-methyl-8,8-dioxido-8-thia-3-azabicyclo[3.2.1]oct-3-en-2-yl)-4-fluorophenyl)-5-cyano-2-pyridinecarboxamide]
IC50 [1]: 0.002 µM
IC50 [2]: 957 µM
IC50 [3]: 0.004 µM

C[C@]1(c2cc(NC(=O)c3ccc(C(F)(F)F)cc3F)ccc2F)N=C(N)[C@@]2(C)CC[C@@H]1S2(=O)=O [Example 121, N-(3-((1S,2R,5R)-4-amino-2,5-dimethyl-8,8-dioxido-8-thia-3-azabicyclo[3.2.1]oct-3-en-2-yl)-4-fluorophenyl)-2-fluoro-4-(trifluoromethyl)benzamide]
IC50 [1]: 0.41 µM
IC50 [2]: > 400 µM
IC50 [3]: 0.15 µM

C[C@]12CC[C@H]([C@@](C)(c3cc(NC(=O)c4ccc(C(F)(F)F)cc4F)ccc3F)N=C1N)S2(=O)=O [Example 122, N-(3-((1R,2R,5S)-4-amino-2,5-dimethyl-8,8-dioxido-8-thia-3-azabicyclo[3.2.1]oct-3-en-2-yl)-4-fluorophenyl)-2-fluoro-4-(trifluoromethyl)benzamide]
IC50 [1]: 0.905 µM
IC50 [2]: > 400 µM
IC50 [3]: 0.255 µM

COc1ccc(C(=O)Nc2ccc(F)c([C@@]3(C)N=C(N)[C@@]4(C)CC[C@@H]3S4(=O)=O)c2)c(F)c1 [Example 123, N-(3-((1S,2R,5R)-4-amino-2,5-dimethyl-8,8-dioxido-8-thia-3-azabicyclo[3.2.1]oct-3-en-2-yl)-4-fluorophenyl)-2-fluoro-4-methoxybenzamide]
IC50 [1]: 0.13 µM
IC50 [2]: 1620 µM
IC50 [3]: 0.083 µM

COc1ccc(C(=O)Nc2ccc(F)c([C@@]3(C)N=C(N)[C@]4(C)CC[C@H]3S4(=O)=O)c2)c(F)c1 [Example 124, N-(3-((1R,2R,5S)-4-amino-2,5-dimethyl-8,8-dioxido-8-thia-3-azabicyclo[3.2.1]oct-3-en-2-yl)-4-fluorophenyl)-2-fluoro-4-methoxybenzamide]
IC50 [1]: 0.588 µM
IC50 [2]: 4440 µM
IC50 [3]: 0.103 µM

C[C@]1(c2cc(NC(=O)c3c(F)cc(Br)cc3F)ccc2F)N=C(N)[C@@]2(C)CC[C@@H]1S2(=O)=O [Example 125, N-(3-((1S,2R,5R)-4-amino-2,5-dimethyl-8,8-dioxido-8-thia-3-azabicyclo[3.2.1]oct-3-en-2-yl)-4-fluorophenyl)-4-bromo-2,6-difluorobenzamide]
IC50 [1]: 0.103 µM
IC50 [2]: > 400 µM
IC50 [3]: 0.065 µM

C[C@]12CC[C@H]([C@@](C)(c3cc(NC(=O)c4c(F)cc(Br)cc4F)ccc3F)N=C1N)S2(=O)=O [Example 126, N-(3-((1R,2R,5S)-4-amino-2,5-dimethyl-8,8-dioxido-8-thia-3-azabicyclo[3.2.1]oct-3-en-2-yl)-4-fluorophenyl)-4-bromo-2,6-difluorobenzamide]
IC50 [1]: 0.315 µM
IC50 [2]: 2200 µM
IC50 [3]: 0.073 µM

C[C@]1(c2cc(NC(=O)c3ccc(C#N)cc3F)ccc2F)N=C(N)[C@@]2(C)CC[C@@H]1S2(=O)=O [Example 127, N-(3-((1S,2R,5R)-4-amino-2,5-dimethyl-8,8-dioxido-8-thia-3-azabicyclo[3.2.1]oct-3-en-2-yl)-4-fluorophenyl)-4-cyano-2-fluorobenzamide]
IC50 [1]: 0.056 µM
IC50 [2]: > 400 µM
IC50 [3]: 0.025 µM

C[C@]12CC[C@H]([C@@](C)(c3cc(NC(=O)c4ccc(C#N)cc4F)ccc3F)N=C1N)S2(=O)=O [Example 128, N-(3-((1R,2R,5S)-4-amino-2,5-dimethyl-8,8-dioxido-8-thia-3-azabicyclo[3.2.1]oct-3-en-2-yl)-4-fluorophenyl)-4-cyano-2-fluorobenzamide]
IC50 [1]: 0.123 µM
IC50 [2]: > 400 µM
IC50 [3]: 0.037 µM

C[C@]1(c2cc(Nc3ncnc4cc(Cl)cnc34)ccc2F)N=C(N)[C@@]2(C)CC[C@@H]1S2(=O)=O [Example 130, N-(3-((1S,2R,5R)-4-amino-2,5-dimethyl-8,8-dioxido-8-thia-3-azabicyclo[3.2.1]oct-3-en-2-yl)-4-fluorophenyl)-7-chloropyrido[3,2-d]pyrimidin-4-amine]
IC50 [1]: 0.005 µM
IC50 [2]: 363 µM
IC50 [3]: 0.004 µM
